Laboratory results taken from ChEMBL document CHEMBL1158891, “Chemical and biological investigation of the fungus Pulveroboletus ravenelii” (J Nat Prod, 2003).
In brackets after ≈: the same amount, converted by molar mass.

How the values were obtained:
[1] = Inhibition of 7,12-dimethylbenz[a]anthracene-induced preneoplastic lesions in BALB/c mouse mammary gland culture after 1 to 10 days; assay type: functional, tissue-based
[2] = target: Prostaglandin G/H synthase 1 (Homo sapiens, UniProt P23219); experiment: Inhibition of COX1
Sequence of Prostaglandin G/H synthase 1 (P23219 whole entry): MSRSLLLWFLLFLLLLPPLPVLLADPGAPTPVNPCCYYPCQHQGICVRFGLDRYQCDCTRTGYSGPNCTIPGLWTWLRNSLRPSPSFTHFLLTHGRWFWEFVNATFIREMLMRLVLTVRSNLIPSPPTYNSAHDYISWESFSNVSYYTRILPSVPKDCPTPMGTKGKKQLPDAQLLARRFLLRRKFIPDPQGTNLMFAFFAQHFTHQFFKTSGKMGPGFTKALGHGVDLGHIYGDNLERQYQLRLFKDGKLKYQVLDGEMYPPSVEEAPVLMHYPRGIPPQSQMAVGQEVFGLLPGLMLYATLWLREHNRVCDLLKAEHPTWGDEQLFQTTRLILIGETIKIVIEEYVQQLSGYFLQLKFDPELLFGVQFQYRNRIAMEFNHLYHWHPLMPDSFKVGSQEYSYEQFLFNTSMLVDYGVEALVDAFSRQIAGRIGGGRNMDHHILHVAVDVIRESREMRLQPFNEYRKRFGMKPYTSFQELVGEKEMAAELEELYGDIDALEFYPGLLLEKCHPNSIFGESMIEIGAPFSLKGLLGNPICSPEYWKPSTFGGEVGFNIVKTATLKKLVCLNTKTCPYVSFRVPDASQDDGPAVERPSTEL

[3] = target: T1, Prostaglandin G/H synthase 2 (Homo sapiens, UniProt P35354); experiment: Inhibition of COX2
T1 sequence (P35354 whole entry): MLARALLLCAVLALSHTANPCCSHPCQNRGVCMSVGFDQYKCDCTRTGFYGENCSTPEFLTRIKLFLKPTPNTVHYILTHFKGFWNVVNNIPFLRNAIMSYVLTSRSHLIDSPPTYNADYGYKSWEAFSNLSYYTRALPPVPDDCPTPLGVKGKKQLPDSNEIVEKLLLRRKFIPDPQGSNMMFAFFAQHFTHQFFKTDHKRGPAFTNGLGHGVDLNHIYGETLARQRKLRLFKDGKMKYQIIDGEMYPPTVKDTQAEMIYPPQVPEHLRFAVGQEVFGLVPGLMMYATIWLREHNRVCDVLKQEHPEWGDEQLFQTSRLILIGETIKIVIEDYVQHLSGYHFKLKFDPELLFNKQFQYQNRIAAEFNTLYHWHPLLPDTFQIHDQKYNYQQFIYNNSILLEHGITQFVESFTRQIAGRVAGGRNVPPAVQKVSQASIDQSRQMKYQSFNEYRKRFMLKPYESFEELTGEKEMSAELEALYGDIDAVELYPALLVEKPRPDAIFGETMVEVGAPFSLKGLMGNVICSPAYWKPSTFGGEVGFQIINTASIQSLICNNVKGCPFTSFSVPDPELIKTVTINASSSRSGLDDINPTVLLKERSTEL

Staphylococcus aureus = experiment: Antimicrobial activity against Staphylococcus aureus; assay type: functional, organism-based

Row | SMILES | IC50 [1] [µg/mL] | IC50 [2] [µM] | IC50 [3] [µM] | IC50 (Staphylococcus aureus) [µg/mL]
1 | COC(=O)[C@@H](c1ccccc1)[C@@H](C1=C(O)/C(=C/c2ccccc2)OC1=O)c1ccccc1 [PULVERAVEN A] | 6 (≈ 14.1 µM) |  |  | 
2 | COC(=O)[C@@H](c1ccccc1)[C@H](C1=C(O)/C(=C/c2ccccc2)OC1=O)c1ccccc1 [PULVERAVEN B] | 0.8 (≈ 1.88 µM) | > 234 | > 234 | 
3 | COC(=O)/C(=C1/OC(=O)C(c2ccccc2)=C1O)c1ccccc1 [VULPINIC ACID] | > 10 | 676 |  | 20 (≈ 62.1 µM)
